Assay results reported in paper PMC4055595, “Pharmacokinetic Compatibility of Ginsenosides and Schisandra Lignans in Shengmai-san: From the Perspective of P-Glycoprotein” (PLoS ONE, 2014).
Read-outs that look alike come from different tables or passages of the source.

How the values were obtained:
[1] = system: LLC-PK1 cells (lacking P-gp); assay: Uptake (intracellular accumulation) of digoxin and ginsenosides in LLC-PK1 cells; assay type: in vitro ADME; conditions: for Effect of verapamil on intracellular accumulation: 10 µM verapamil; for Effect of SLE on intracellular accumulation: SLE 2.0 and 10.0 µg/mL
Description: (§1) LLC-PK1 cells, a cell line lacking P-gp, and the derived cell line L-MDR1, which over-express human MDR1-encoded P-gp, were grown in minimum essential medium with supplements at 37°C, 5% CO2, and 95% humidity. LLC-PK1 and L-MDR1 cells were seeded at a density of 12×10^6 cells per 150-cm^2 flask and grown for 7 days in medium 199 supplemented with 2 mM glutamine, 10% fetal bovine serum, 10 mg/500 mL of streptomycin, and 10,000 IU/500 mL of penicillin. To ensure a constant expression level of transport protein, L-MDR1 cells were grown in the presence of 640 nM vincristine. Cells were grown as monolayer on polycarbonate membrane filters (Transwell; Costar Corporation, Cambridge, MA) as outlined previously. Transepithelial resistance was measured in each well using a Millicell ERS ohmmeter (Millipore, Bedford, MA); wells registering a resistance of 200 ohms or greater, after correcting for the resistance obtained in control blank wells, were used in the transport experiments.
LLC-PK1 and L-MDR1 cells were incubated with SLE (2.0 and 10.0 µg/mL) or verapamil (10 µM) for 1.0 h, and then were washed to discard SLE or verapamil before adding 100 µg/mL of GE. The accumulation of GE lasted for 2 h, and the intracellular concentrations of ginsenosides were measured by LC/MS. All experiments were conducted in triplicate.

[2] = system: LLC-PK1 cells (lacking P-gp); assay: Transport of digoxin and ginsenosides across LLC-PK1 cell monolayers; assay type: in vitro ADME; conditions: for Effect of verapamil on transport (efflux ratio): 10 µM verapamil; for Effect of SLE on transport (AP→BL, BL→AP): SLE 2.0 and 10.0 µg/mL
Description: as §1
The LLC-PK1 and L-MDR1 cells were washed with warm Hank's balanced salt solution HBSS (pH 7.4) twice before transport experiment. HBSS containing verapamil (10 µM), SLE (2.0 and 10.0 µg/mL) or blank HBSS (control) was then loaded into both apical and basolateral chambers. After incubation at 37°C for 1.5 h, GE (100 µg/mL) was added to either the apical or basolateral side to evaluate the transport in absorptive and secretive directions, respectively. The cell monolayer was then incubated for another 2 h. Finally, the concentrations of ginsenosides were determined by LC/MS. All experiments were conducted in triplicate.
For the transport assay, the apparent permeability (P app, cm/s) in each direction (A→B and B→A) was calculated as follows, where A is the surface area of the membrane inserts (0.0804 cm^2), C 0 is the initial concentration of the compound applied in the donor compartment (2 µM), and △Q is the amount (micromoles) of compound transported over time △t (5 h = 18,000 s): [drawing 1]
The efflux ratio (ER) was a dimensionless number calculated as the ratio of the apparent permeability in the B→A direction divided by the apparent permeability in the A→B direction. [drawing 2]

[3] = Rat plasma pharmacokinetics after single-dose vehicle/SLE and digoxin or GE; assay type: in vivo, Sprague-Dawley rats; conditions: for AUC(0-inf): read-out: AUCINF_obs; for MRT inf: read-out: MRTINF_obs; for Effect of SLE treatment on Cmax / Increase of AUC (AUC0-∞) by coadministration of SLE: single-dose SLE 500 mg/kg vs vehicle, GE ig
Description: This study was carried out in strict accordance with the recommendations in the Guide for the Care and Use of Laboratory Animals of the National Institutes of Health. The protocol was approved by the Committee on the Ethics of Animal Experiments of the China Pharmaceutical University. All surgery was performed under sodium pentobarbital anesthesia, and all efforts were made to minimize suffering. Female healthy Sprague-Dawley rats (200±20 g) were purchased from the Laboratory Animal Center of Peking University Health Science Center (Beijing, PR China) and kept in an environmentally controlled breeding room for at least 3 days before experimentation. The rats were fed with standard laboratory food and water and fasted overnight but with free access to water before the test. To evaluate the effect of single treatment of SLE on the pharmacokinetics of ginsenosides, 24 rats were divided into four groups (group I ∼ group IV) averagely. […] In group II (control group): the rats received a single dose of vehicle (0.5% CMC-Na), and digoxin (0.5 mg/kg) was also given to the rats by intragastric administration. […] In group IV (control group): the rats received a single dose of vehicle (0.5% CMC-Na), and GE (120 mg/kg) was also given to the rats by gavage. […] Plasma was obtained by centrifugation at 5000 g for 10 min and stored at −20°C before analysis. The plasma / cell samples were extracted using a liquid–liquid extraction technique. To each tube containing 100 µL plasma, 10 µL internal standard (digoxin, 1.0 µg/mL) and 1.0 mL of n-butanol were added. The mixture was then vortex-extracted for 2 min, and centrifuged for 10 min at 10,000 g. […] The plasma concentration-time curves of ginsenosides in rats were obtained by plotting the mean plasma concentrations versus time. Pharmacokinetic parameters were calculated using the WinNonlin 6.3 program (Pharsight Inc., Mountain View, CA). The elimination half-life (t 1/2) value was calculated as 0.693/β, where β is the elimination rate constant calculated from the terminal linear portion of the log plasma concentration-time curve. The total areas under the plasma concentration- time curve from time 0 to the last quantifiable time point (AUC0-t) and from time 0 to infinity (AUC0-∞) were calculated using the log trapezoidal rule. [drawing 3] The maximum plasma concentrations (C max) for ginsenosides were obtained by visual inspection of the plasma concentration-time curve, whereas the initial drug concentration (the extrapolated concentration at zero time) of the drug after intravenous injection was calculated by back-extrapolation of the plasma concentration-time curve to the y-axis.

[4] = female, Sprague-Dawley, rat, plasma, po, rats, control: single vehicle (0.5% sodium CMC), 2 h later digoxin 0.5 mg/kg or GE 120 mg/kg ig, read-out: t1/2 (converted)
[5] = female, Sprague-Dawley, rat, plasma, po, rats, control: single vehicle, 2 h later digoxin 0.5 mg/kg or GE 120 mg/kg ig
[6] = female, Sprague-Dawley, rat, plasma, po, rats, control: single vehicle, 2 h later digoxin 0.5 mg/kg or GE 120 mg/kg ig, read-out: Tmax
[7] = female, Sprague-Dawley, rat, plasma, po, rats, single SLE 500 mg/kg ig, 2 h later digoxin 0.5 mg/kg or GE 120 mg/kg ig
[8] = female, Sprague-Dawley, rat, plasma, po, rats, single SLE 500 mg/kg ig, 2 h later digoxin 0.5 mg/kg or GE 120 mg/kg ig, read-out: Tmax
[9] = female, Sprague-Dawley, rat, plasma, po, rats, single SLE 500 mg/kg ig, 2 h later digoxin 0.5 mg/kg or GE 120 mg/kg ig, read-out: t1/2 (converted)
[10] = rats, control: single vehicle, 2 h later digoxin 0.5 mg/kg or GE 120 mg/kg ig
[11] = rats, single SLE 500 mg/kg ig, 2 h later digoxin 0.5 mg/kg or GE 120 mg/kg ig
[12] = female, Sprague-Dawley, rat, in vivo, po

Row | SMILES | Effect of verapamil on intracellular accumulation [1] | Effect of SLE on intracellular accumulation [1] | Effect of verapamil on transport (efflux ratio) [2] | Effect of SLE on transport (AP→BL, BL→AP) [2] | half-life [3, 4] [h] | AUC [3, 5] [ng·h/mL] | Cmax [3, 5] [ng/mL] | AUC(0-inf) [3, 5] [ng·h/mL] | MRT inf [3, 5] [h] | Tmax [3, 6] [h] | AUC [3, 7] [ng·h/mL] | Cmax [3, 7] [ng/mL] | AUC(0-inf) [3, 7] [ng·h/mL] | MRT inf [3, 7] [h] | Tmax [3, 8] [h] | half-life [3, 9] [h] | Cl_F_obs [3, 10] [L/h] | Cl_F_obs [3, 11] [L/h] | Effect of SLE treatment on Cmax ([3]; rats) | Increase of AUC (AUC0-∞) by coadministration of SLE ([3]; rats) [fold] | other results
1 | C[C@H]1O[C@@H](O[C@H]2[C@@H](O)C[C@H](O[C@H]3[C@@H](O)C[C@H](O[C@H]4CC[C@@]5(C)[C@H](CC[C@@H]6[C@@H]5C[C@@H](O)[C@]5(C)[C@@H](C7=CC(=O)OC7)CC[C@]65O)C4)O[C@@H]3C)O[C@@H]2C)C[C@H](O)[C@@H]1O [Digoxin, digoxin, reference compound] | no significant difference | no significant difference | No transport difference | No transport difference | 3.08 ± 1.23 | 61.8 ± 13.4 | 15 ± 5.07 | 67.5 ± 13.4 | 5.15 ± 1.09 | 1.28 ± 0.36 | 84.4 ± 7.25 | 17.5 ± 2.26 | 91 ± 8.39 | 5.06 ± 0.42 | 1.58 ± 0.38 | 2.98 ± 0.36 | 7.66 ± 1.53 | 5.53 ± 0.48 | – | – | –
2 | CC(C)=CCC[C@](C)(O[C@@H]1O[C@H](CO[C@@H]2O[C@H](CO)[C@@H](O)[C@H](O)[C@H]2O)[C@@H](O)[C@H](O)[C@H]1O)[C@H]1CC[C@]2(C)[C@@H]1[C@H](O)C[C@@H]1[C@@]3(C)CC[C@H](O[C@@H]4O[C@H](CO)[C@@H](O)[C@H](O)[C@H]4O[C@@H]4O[C@H](CO)[C@@H](O)[C@H](O)[C@H]4O)C(C)(C)[C@@H]3CC[C@]12C [Rb1, ginsenoside Rb1] | no significant difference | no significant difference | No transport difference | No transport difference | 13.3 ± 2.43 | 14300 ± 2380 | 491 ± 61.4 | 14400 ± 2470 | 23.1 ± 4.31 | 7.5 ± 1 | 18500 ± 5780 | 651 ± 127 | 18500 ± 5730 | 23.5 ± 2.68 | 11 ± 2 | 11.3 ± 2.74 | 0.007 ± 0.001 | 0.006 ± 0.002 | significantly enhanced | 1.29 | –
3 | CC(C)=CCC[C@](C)(O[C@@H]1O[C@H](CO[C@@H]2OC[C@H](O)[C@H](O)[C@H]2O)[C@@H](O)[C@H](O)[C@H]1O)[C@H]1CC[C@]2(C)[C@@H]1[C@H](O)C[C@@H]1[C@@]3(C)CC[C@H](O[C@@H]4O[C@H](CO)[C@@H](O)[C@H](O)[C@H]4O[C@@H]4O[C@H](CO)[C@@H](O)[C@H](O)[C@H]4O)C(C)(C)[C@@H]3CC[C@]12C [Rb2, ginsenoside Rb2] | no significant difference | no significant difference | – | No transport difference | 19.4 ± 2.87 | 10200 ± 1710 | 330 ± 70.9 | 10600 ± 1730 | 27.9 ± 4.2 | 7 ± 2 | 22300 ± 5270 | 541 ± 45 | 23200 ± 5570 | 25.2 ± 3.63 | 9.5 ± 3 | 19 ± 3.84 | 0.012 ± 0.003 | 0.004 ± 0.001 | significantly enhanced | 2.18 | AUCINF_obs [3, 10]: 10551 ± 1728 ng·h/mL; AUCINF_obs [3, 11]: 23198 ± 5566 ng·h/mL
4 | CC(C)=CCC[C@](C)(O[C@@H]1O[C@H](CO[C@@H]2O[C@@H](CO)[C@H](O)[C@H]2O)[C@@H](O)[C@H](O)[C@H]1O)[C@H]1CC[C@]2(C)[C@@H]1[C@H](O)C[C@@H]1[C@@]3(C)CC[C@H](O[C@@H]4O[C@H](CO)[C@@H](O)[C@H](O)[C@H]4O[C@@H]4O[C@H](CO)[C@@H](O)[C@H](O)[C@H]4O)C(C)(C)[C@@H]3CC[C@]12C [Rc, ginsenoside Rc] | no significant difference | no significant difference | No transport difference | No transport difference | – | – | – | – | – | – | – | – | – | – | – | – | – | – | – | – | Tmax [3, 12]: 9.00 ± 2.00 h; t1/2 [3, 12]: 16.90 ± 2.14 h; Tmax ([3]; female, Sprague-Dawley, rat, in vivo, po, Tmax): 9.5 ± 3 h; half-life ([3]; female, Sprague-Dawley, rat, in vivo, po, t1/2): 17.3 ± 4.54 h
